Measured values as given in patent publication US11666561B2, “Compounds for use in regulating follicle maturation” (AARHUS UNIVERSITET, priority 2017, dated 2023).
Structures can show the parent of a compound that is named as a salt.

System: primordial-to-primary follicle transition
Test: In vitro organ culture of mouse ovaries with compound, H&E histology and counting of primordial, primary and secondary follicles
Conditions: for effect on primordial-to-primary follicle transition / primordial follicle activation: in vitro cultured mouse ovaries, concentration not given
Procedure: Ovaries obtained from mice were washed twice with culture medium. Antagonists or agonists to be tested were dissolved in suitable solvents and added to the medium. As a control medium comprising solvent without the antagonist or agonist was used. One of the ovaries was cultured in a control medium and another was cultured with the antagonist or agonist. The tested antagonists or agonists and their concentrations are outlined in table 2.
Ovaries were incubated with antagonist at 37° C. and 5% CO2 for 24 and 96 hours, respectively (see table 3).
Cultures ovaries were fixed, embedded in paraffin and sliced microscopy. The sectioned ovaries were stained with hematoxylin and eosin (H&E) to visualize the morphology of the ovary by microscopy.
The number of primordial, primary and secondary follicles was determined, and it was determined whether the antagonist or agonist was capable of regulating folliculogenesis.
C57BL/6j×CBA F1 hybrid mice (Janvier Labs, France) were housed and bred in the animal facilities at Department of Biomedicine, Aarhus University. Animals were housed in a 12:12 h controlled light-dark environment and were provided with food and water ad libitum. 7-day-old female pups were used for the study.
Pups were sacrificed and ovaries were excised. Using a stereomicroscope MZ75 (Leica Microsystems, Germany), excess tissue was removed. During the dissection, ovaries were kept at 37° C. in culture medium: aMEM (Thermo Fisher) supplemented with 10% FBS (Thermo Fisher), 100 mIU/mL of FSH (Sigma-Aldrich), 100 IU/mL penicillin (Thermo Fisher), 100 μg/mL streptomycin (Thermo Fisher) and 1% Insulin-Transferrin-Selenium (Thermo Fisher). Isolated ovaries were transferred into well inserts (PET membrane ThinCert, 0.4 μm-pore size; Greiner bio-one) in 24-well plates (Tissue culture treated, cell culture plates; Costar). 200-300 μL of culture medium was added to the well below the insert and up to two ovaries were placed on the membrane of each insert. The culture medium was supplemented with different concentrations of the tested compounds; bpV(HOpic) (Sigma-Aldrich), Temsirolimus (Sigma-Aldrich), Ketotifen (Sigma-Aldrich), 3PO (Sigma-Aldrich), Dorsomorphin (Sigma-Aldrich), AICAR (Sigma-Aldrich), NCG (Sigma-Aldrich), and Dyphylline (Cayman Chemical). Up to six wells in the 24-well plate were used for inserts. Sterile dH2O was added to the rest of the wells to ensure humidity and reduce evaporation. The ovaries were cultured at 37° C., 5% CO2 for four days. 150 μL of medium was replaced every other day with fresh culture medium.
Ovaries kept in organ culture for four days were fixed for 24 hours in 4% paraformaldehyde solution at 4° C. After fixation, ovaries were dehydrated in ethanol series using 70%, 96% and 99.9% ethanol. Xylene was used as clearing agent before the ovaries were infiltrated in paraffin wax. 5 μm-sections of samples in paraffin were cut using a microtome (Cut 6062, SLEE medical, Germany). Paraffin sections were mounted on glass slides, paraffin was melted at 60° C., and the samples were stained with hematoxylin and eosin (using standard protocols).
The samples were deparaffinized by incubating in xylene for 2×15 min. and subsequently rehydrated in series of ethanol; 3×2 min. in 99.9% ethanol, 2 min. in 96% ethanol, and 2 min. in 70% ethanol. The samples were then rinsed in dH2O, stained in hematoxylin for 40 sec., rinsed in dH2O for 5 min., and stained in eosin for 46 sec. The samples were dehydrated in ethanol: 2×2 min. in 96% ethanol, 2×2 min in 99.9% ethanol, and finally cleared up in xylene for at least 30 min before mounting the samples using Eukitt mounting medium (Sigma-Aldrich) and cover glass.
The number of follicles at each developmental stage was counted using an inverted research microscope (DM14000B, Leica Microsystems, Germany). The follicles of every 3rd to 4th section of each ovary were counted and the distribution of follicles in the different stages in percentage was determined.

[1] = 1.0 μM Trigonellin hydrochloride, 96 hours

| Compound | Effect (Table 1, marked (ongoing)) | Effect (Table 2, marked (ongoing)) | also measured |
| --- | --- | --- | --- |
| c1cc(-c2cnn3cc(-c4ccc(OCCN5CCCCC5)cc4)cnc23)ccn1 [Dorsomorphin] | – | – | primary follicles (5 μM dorsomorphin, four days): 12.78±2.23%; secondary follicles (5 μM dorsomorphin, four days): 15.87±3.06%; primordial follicles (5 μM dorsomorphin, four days, own control contaminated, compared with control of another experiment): 71.32±5.50% |
| OCCN(CCO)c1nc(N2CCCCC2)c2nc(N(CCO)CCO)nc(N3CCCCC3)c2n1 [Dipyridamole, 2-[[2-[bis(2-hydroxyethyl)amino]-4,8-di(piperidin-1-yl)pyrimido[5,4-d]pyrimidin-6-yl]-(2-hydroxyethyl)amino]ethanol] | promotes | promotes | – |
| Cn1c(=O)c2[nH]cnc2n(C)c1=O [Theophylline, 1,3-dimethyl-7H-purine-2,6-dione] | promotes | promotes | – |
| CS(=O)(=O)N1CCN(Cc2cc3nc(-c4cccc5[nH]ncc45)nc(N4CCOCC4)c3s2)CC1 [Pictilisib, 2-(1H-indazol-4-yl)-6-(4-methanesulfonylpiperazin-1-ylmethyl)-4-morpholin-4-ylthieno(3,2-d)pyrimidine] | promotes | promotes | – |
| CCCCNC(=O)NS(=O)(=O)c1ccc(C)cc1 [Tolbutamide, 1-butyl-3-(4-methylphenyl)sulfonylurea] | promotes | promotes | – |
| COc1cc(N2CCC(N3CCN(C)CC3)CC2)ccc1Nc1nc2c(c(Nc3ccccc3S(=O)(=O)NC(C)C)n1)CCN2 [CT-707] | promotes | promotes | – |
| C[C@H]1Cc2ccccc2N1C(=O)Cc1nc(N2CCOCC2)cc(=O)[nH]1 [SAR260301, (S)-2-(2-(2-Methylindolin-1-yl)-2-oxoethyl)-6-morpholinopyrimidin-4(3H)-one] | promotes | promotes | – |
| CN(C)C/C=C/C(=O)Nc1cc2c(Nc3ccc(F)c(Cl)c3)ncnc2cc1O[C@H]1CCOC1 [Afatinib, (E)-N-[4-(3-chloro-4-fluoroanilino)-7-[(3S)-oxolan-3-yl]oxyquinazolin-6-yl]-4-(dimethylamino)but-2-enamide] | promotes | promotes | – |
| CN1CCC(=C2c3ccccc3CC(=O)c3sccc32)CC1 [Ketotifen, 4,9-dihydro-4-(1-methyl-4-piper-idylidende)-10H-benzo(4,5)cyclohepta(1,2,b)thiophen-10-one] | – | – | less primary follicles than control (85 nM Ketotifen, 96 hours): ~44%; less secondary follicles than control (85 nM Ketotifen, 96 hours): ~65%; more primordial follicles than control (85 nM Ketotifen, 96 hours): approximately 9%; Effect (Table 1, effect with a figure cited): inhibits follicle; Effect (Table 2, effect with a figure cited): inhibits follicle; effect on primordial-to-primary follicle transition / primordial follicle activation: significantly more primordial follicles |
| O=C1C=C/C(=C(/[O-])O)N=C1.[K+].[O-][O-].[O-][O-].[O]=[V] [bpV(HOpic)] | – | – | effect on primordial-to-primary follicle transition / primordial follicle activation: increase the rate of primordial-to-primary transition |
| CCOc1cc(C(C)(C)C)ccc1C1=N[C@@](C)(c2ccc(Cl)cc2)[C@@](C)(c2ccc(Cl)cc2)N1C(=O)N1CCN(CCCS(C)(=O)=O)CC1 [RO5045337, [(4S,5R)-2-(4-tert-butyl-2-ethoxyphenyl)-4,5-bis(4-chlorophenyl)-4,5-dimethylimidazol-1-yl]-[4-(3-methylsulfonylpropyl)piperazin-1-yl]methanone] | promotes | promotes | – |
| O=C1CCc2cc(OCCCCc3nnnn3C3CCCCC3)ccc2N1 [Cilostazol, 6-[4-(1-cyclohexyltetrazol-5-yl)butoxy]-3,4-dihydro-1H-quinolin-2-one] | promotes | promotes | – |
| COc1cc(C(=O)O)ccc1NC(=O)[C@@H]1N[C@@H](CC(C)(C)C)[C@](C#N)(c2ccc(Cl)cc2F)[C@H]1c1cccc(Cl)c1F [Idasanutlin, 4-{[(3S,4R,5S)-3-(3-Chloro-2-fluorophenyl)-4-(4-chloro-2-fluorophenyl)-4-cyano-5-(2,2-dimethylpropyl)-D-prolyl]amino}-3-methoxybenzoic acid] | promotes | promotes | – |
| CCOc1cc2ncc(C#N)c(Nc3ccc(F)c(Cl)c3)c2cc1NC(=O)/C=C/CN(C)C [Pelitinib, (E)-N-[4-(3-chloro-4-fluoroanilino)-3-cyano-7-ethoxyquinolin-6-yl]-4-(dimethylamino)but-2-enamide] | promotes | promotes | – |
| C=CCN(/C=C1/C(=O)O[C@H](COC)[C@@]2(C)C1=C(O)C(=O)C1=C2[C@H](OC(C)=O)C[C@]2(C)C(=O)CC[C@@H]12)CC=C [PX-866] | promotes | promotes | – |
| C[n+]1cccc(C(=O)[O-])c1 [Trigonellin hydrochloride] | – | – | decrease in the average numbers of primordial follicles compared to the control [1]: ~20%; increase compared to the control (follicle stage not given) [1]: ~74% |
| COc1cc2c(cc1OC(C)C)[C@H](c1ccc(Cl)cc1)N(c1ccc(N(C)CC3CCC(N4CCN(C)C(=O)C4)CC3)cc1)C(=O)C2 (stereo partly drawn) [CGM097, (1S)-1-(4-chlorophenyl)-6-methoxy-2-[4-[methyl-[[4-(4-methyl-3-oxopiperazin-1-yl)cyclohexyl]methyl]amino]phenyl]-7-propan-2-yloxy-1,4-dihydroisoquinolin-3-one] | promotes | promotes | – |
| CC1(C)CCC2(CC1)N[C@@H](C(=O)N[C@@H]1CC[C@@H](C(N)=O)OC1)[C@H](c1ccnc(Cl)c1F)[C@]21C(=O)Nc2cc(Cl)ccc21.Cc1ccc(S(=O)(=O)O)cc1 [DS-3032b, L-Erythro-hexonamide, 2,6-anhydro-5-((((3′R,4'S,5′R)-6″-chloro-4′-(2-chloro-3-fluoro-4-pyridinyl)-1″,2″-dihydro-4,4-dimethyl-2″-oxodispiro(cyclohexane-1,2′-pyrrolidine-3′,3″-(3H)indol)-5′-yl)carbonyl)amino)-3,4,5-trideoxy-, 4-methylbenzenesulfon] | promotes | promotes | – |
| Nc1cc(-c2ccncc2)c[nH]c1=O [Amrinone, 3-amino-5-pyridin-4-yl-1H-pyridin-2-one] | promotes | promotes | – |
| COC(=O)C1=C(C)NC(C)=C([N+](=O)[O-])C1c1ccccc1C(F)(F)F (stereo not shown) [BAY 1217389, methyl 2,6-dimethyl-5-nitro-4-[2-(trifluoromethyl)phenyl]-1,4-dihydropyridine-3-carboxylate] | promotes | promotes | – |
| Cixutumumab: fully human IgG1 monoclonal antibody directed against the human insulin-like growth factor-1 receptor | promotes | promotes | – |
| COc1cc([C@@H]2c3cc4c(cc3[C@H](O)[C@H]3COC(=O)[C@@H]23)OCO4)cc(OC)c1OC [Picropodophyllin, (5R,5aR,8aS,9R)-5-hydroxy-9-(3,4,5-trimethoxyphenyl)-5a,6,8a,9-tetrahydro-5H-[2]benzofuro[5,6-f][1,3]benzodioxol-8-one] | promotes | promotes | – |
| CC1(O)CC(c2nc(-c3ccc4ccc(-c5ccccc5)nc4c3)c3c(N)nccn23)C1 (stereo not shown) [Linsitinib, 3-[8-amino-1-(2-phenylquinolin-7-yl)imidazo[1,5-a]pyrazin-3-yl]-1-methylcyclobutan-1-ol] | promotes | promotes | – |
| Cn1c(=O)n(-c2ccc(C(C)(C)C#N)cc2)c2c3cc(-c4cnc5ccccc5c4)ccc3ncc21 [Dactolisib, -methyl-2-(4-(3-methyl-2-oxo-8-(quinolin-3-yl)-2,3-dihydro-1H-imidazo[4,5-c]quinolin-1-yl)phenyl)propanenitrile] | promotes | promotes | – |
